Laboratory results taken from publication PMC10009108, “Design, synthesis and screening of indole acetic acid-based tri-azo moieties as antioxidants, anti-microbial and cytotoxic agents” (Frontiers in Pharmacology, 2023).
In brackets after ≈: the same amount, converted by molar mass.

Experiments:
[1] = system: Mucor species (FCBP-0300); test: Antifungal disc diffusion assay; format: cell-based; conditions: Mucor; 20 μg/disc
Description: (§1) The antifungal response to these chemical moieties was evaluated through a procedure designated by ([Zahra et al., 2017]). Amphotericin B (4 mg/mL DMSO) is used as + ve control and DMSO as-ve one (5 μL/disc). Sterile SDA-coated plates were used, on which 100 µL of suspension of spores for each strain (previously reaped-in-Tween-20 solution) was spread. Discs of sterile filter paper containing 5 µL of sample solution (4 mg/mL DMSO) were kept on plates and incubated for 2 days at 28°C. Zones of inhibition were recorded.
(§2) The Synthetic compound library was subjected to an antifungal assay using five different strains of Fungai, i.e., Fusarium solani (FCBP-0291), Aspergillus fumigatus (FCBP-66), Aspergillus flavus (FCBP-0064), Aspergillus niger (FCBP-0198) and Mucor species (FCBP-0300). Amphotericin B was the standard drug used. […] The outcomes are concise in Table 5.

[2] = system: Aspergillus niger (FCBP-0198); test: Antifungal disc diffusion assay; format: cell-based; conditions: Aspergillus niger; 20 μg/disc
Description: as §1, §2

[3] = system: Aspergillus flavus (FCBP-0064); test: Antifungal disc diffusion assay; format: cell-based; conditions: Aspergillus flavus; 20 μg/disc
Description: as §1, §2

[4] = system: Aspergillus fumigatus (FCBP-66); test: Antifungal disc diffusion assay; format: cell-based; conditions: Aspergillus fumigatus; 20 μg/disc
Description: as §1, §2

[5] = system: Fusarium solani (FCBP-0291); test: Antifungal disc diffusion assay; format: cell-based; conditions: Fusarium solani, 20 μg/disc; read-out: Zone of inhibition, F. solani
Description: as §1, §2

[6] = in vivo
Description: The cytotoxic evaluation was accomplished using the decorum designed by ([Khan et al., 2011]). To a plate of 96 wells, artificial seawater and nauplii were added. Test samples were taken in wells (40, 20, 10, 5 μg/mL) after making up the final volume with seawater, the plates were left uncovered under the lamp, and after 24 h, the number of surviving larvae was calculated. For samples having ≥50% mortality, the median lethal conc was calculated using the table curve software, Doxorubicin was used as + ve control, and DMSO was the -ve. The percentage of killed organisms was found using the formula. Percentage Mortality=No of dead shrimps÷Total Number of Shrimps×100
The results of all the experiments were articulated as mean ± SD. Each test was performed in triplicate. TAC assay was analyzed by one-way analysis of variance (ANOVA) following DUNCAN’S test using the statistical package for social sciences 18 and p < 0.05 was considered as significant where appropriate. For samples having ≥50% mortality, the median lethal concentration (LC50) was calculated using the table curve software.
This evaluation test forms the basis for the bioactive scanning of compounds for their potential as anti-cancer moieties, to be investigated on a large scale ([Amanullah et al., 2012]). […] Similarities between Artemia salina and mammalian cells have been reported due to DNA-dependent RNA polymerases ([Birndorf et al., 1975]). These Schiff bases were investigated for their cytotoxic potential. […] Doxorubicin was used as the positive control.

[7] = system: Streptomyces 85 E strains; test: Protein kinase inhibition assay; format: cell-based; set-up: key: Active = Bacterial activity; --- = no activity; conditions: Sample Concentration = 20 μg/mL; Surfactin B 20 μg/mL
Description: The protocol followed for this is mentioned ([Fatima et al., 2015]). To assess the test compound’s inhibitory potential, Streptomyces 85 E strains were used, which were refreshed in tryptone soya broth at 37 for 1 day. Spores from refreshed cultures were utilized to prepare the bacterial culture. 100 μg compound was loaded on 5 mm discs of filter paper. These were kept on sowed plates. DMSO-permeated discs were the -ve control. The incubation period was 7 days, and outcomes were stated as bald and clear zones of inhibition.
These synthetic products were evaluated to estimate the inhibitory potential for protein kinase of […] 85 E. Protein kinase is involved with the mycelium production of this species, so the growth patterns were observed as the bald zone. […] One of the propitious targets in cancer treatment is the inhibition of protein kinases. Protein phosphorylation by protein kinases at various residues regulates diverse biological processes, which may include apoptosis, proliferation and differentiation of cells. Deregulation at any step in early tumorigenesis may lead to cancer ([Yao et al., 2011]). Aerial hyphae formation in Streptomyces depends upon protein kinase activity; this scenario is exploited in this test; to inquire about these compounds’ kinase inhibition potential and to look at their anti-cancer potential. The advantage of using Streptomyces for kinase inhibition assay is its predisposition to a wide range of eukaryotic cells. Whole-cell assay of Streptomyces not only identifies the compound’s cytotoxic potential but also identifies signal transduction inhibitors for various activities, e.g., antitumor, anti-mycobacterial, and anti-infective ([Waters et al., 2002]). […] Activity with a bald zone of 10.5 mm and a clear zone of 7.5 mm, following is 5a with a bald zone of 9 mm and a clear zone of 6 mm, and for 5g, values are 7.5 and 6 mm, respectively. It means that these compounds have the potential for protein kinase inhibition as well as the toxicity of the compound.

[8] = system: Streptomyces 85 E strains; test: Protein kinase inhibition assay; format: cell-based; conditions: Sample Concentration = 20 μg/mL; Surfactin B 20 μg/mL
[9] = system: Bacillus subtilis (ATCC-6633); test: Antibacterial assay, micro broth dilution; format: cell-based; set-up: key to Antibacterial activity, Bacillus subtilis: Activity: Active = Bacterial activity; --- = no activity
Excerpt: (§3) The micro broth dilution method was used to establish the antibacterial potential of test samples against Staphylococcus aureus (ATCC-6538), Bacillus subtilis (ATCC-6633), Escherichia coli (ATCC-25922), Klebsiella pneumoniae (ATCC-1705), and Pseudomonas aeruginosa (ATCC-15442) and for the resistant strains of MRSA Staphylococcus aureus, P. aeruginosa and Escherichia coli. The procedure used is described by ([Sarker et al., 2007]). Bacterial inoculum was formed under aseptic conditions keeping the density near 5 × 10^4 CFU/mL in pre-autoclaved nutrient broth. Test samples of an aliquot of 5 µL were shifted to labeled wells of 96 well plates, and after that addition of 195 µL of nutrient broth; was accomplished. After that, a 2-fold serial dilution of every sample was arranged to get final concentrations of 12.5 μg/mL. Then, with the help of a micropipette, 195 µL of bacterial culture of respective strains was poured into each well; further advancement was incubating of plates for 30 min at the temperature of 37°C. […] Incubation of plates was again carried out at 37°C for 1 day, absorbance was noted, and net change in turbidity was the difference between two values of absorbance.
(§4) Schiff base tri-azo compounds were investigated for antibacterial potential. […] 6.25 μg/mL for 5b and 5g, and the least, Table 4 3.12 μg/mL was for 5f. […] Substituents with electron-withdrawing attributes, e.g., -NO2, -Cl, -OH on the aromatic ring, assert a great impact on the antibacterial activity of synthetic compounds. It is also observed that an increase in the number of -OH groups tend to enhance the activity ([Hosamani and Shingalapur, 2011]). Due to the difference in cell-wall composition of Gram + ve and -ve bacteria, different compounds show different features towards the same micro-organism ([Goszczyn’ska et al., 2015]).

[10] = system: Escherichia coli (ATCC-25922); test: Antibacterial assay, micro broth dilution; format: cell-based; conditions: ATCC25922, read-out: E. coli MIC
Excerpt: as §3, §4

[11] = system: Klebsiella pneumoniae (ATCC-1705); test: Antibacterial assay, micro broth dilution; format: cell-based; conditions: ATCC1705
Excerpt: as §3, §4

[12] = system: Pseudomonas aeruginosa (ATCC-15442); test: Antibacterial assay, micro broth dilution; format: cell-based; conditions: ATCC15442
Excerpt: as §3, §4

[13] = system: Staphylococcus aureus (ATCC-6538); test: Antibacterial assay, micro broth dilution; format: cell-based; conditions: ATCC6538, read-out: S. aureus MIC
Excerpt: as §3, §4

[14] = system: resistant S. aureus; test: Antibacterial assay, resistant strains; format: cell-based, Staphylococcus aureus; conditions: resistant strain
Excerpt: as §3, §4

[15] = system: MRSA; test: Antibacterial assay, resistant strains; format: cell-based; conditions: Staphylococcus aureus, resistant strain
Excerpt: as §3, §4

[16] = system: resistant P. aeruginosa; test: Antibacterial assay, resistant strains; format: cell-based; conditions: resistant strain
Excerpt: as §3, §4

[17] = system: resistant E.coli; test: Antibacterial assay, resistant strains; format: cell-based, Escherichia coli; conditions: resistant strain
Excerpt: as §3, §4

[18] = system: Staphylococcus aureus (ATCC-6538); test: Antibacterial assay, micro broth dilution; format: cell-based; set-up: key: Active = Bacterial activity; --- = no activity; conditions: 25 μg/mL
[19] = system: Pseudomonas aeruginosa (ATCC-15442); test: Antibacterial assay, micro broth dilution; format: cell-based; set-up: key: Active = Bacterial activity; --- = no activity; conditions: 25 μg/mL
[20] = system: Klebsiella pneumoniae (ATCC-1705); test: Antibacterial assay, micro broth dilution; format: cell-based; set-up: key: Active = Bacterial activity; --- = no activity; conditions: 25 μg/mL
[21] = system: Escherichia coli (ATCC-25922); test: Antibacterial assay, micro broth dilution; format: cell-based; set-up: key: Active = Bacterial activity; --- = no activity; conditions: 25 μg/mL
[22] = system: MRSA; test: Antibacterial assay, resistant strains; format: cell-based, Staphylococcus aureus; conditions: 25 μg/mL; resistant strain

C[C@@H]1[C@H](O)[C@@H](C)/C=C/C=C/C=C/C=C/C=C/C=C/C=C/[C@H](O[C@@H]2O[C@H](C)[C@@H](O)[C@H](N)[C@@H]2O)C[C@@H]2O[C@](O)(C[C@@H](O)C[C@@H](O)[C@H](O)CC[C@@H](O)C[C@@H](O)CC(=O)O[C@H]1C)C[C@H](O)[C@H]2C(=O)O [Amphotericin B, reference compound]
zone of inhibition at 20 µg/disc [1]: 11.5 mm
zone of inhibition at 20 µg/disc [2]: 12.5 mm
zone of inhibition at 20 µg/disc [3]: 12 mm
zone of inhibition at 20 µg/disc [4]: 10 mm
zone of inhibition at 20 µg/disc [5]: 11.5 mm

COc1cccc2c1C(=O)c1c(O)c3c(c(O)c1C2=O)C[C@@](O)(C(=O)CO)C[C@@H]3O[C@H]1C[C@H](N)[C@H](O)[C@H](C)O1 [Doxorubicin, reference compound]
LC50 at 24 h [6]: 5.7 µg/mL (≈ 10.5 µM)

Surfactin B [reference compound]
Clear zone [7]: ---
Bald zone [8]: 22.3 mm

O=C(O)c1cn(C2CC2)c2cc(N3CCNCC3)c(F)cc2c1=O [Ciprofloxacin, reference compound]
Antibacterial activity, Bacillus subtilis: Activity ([9]; 25 μg/mL): Active
MIC ([9]; Bacillus subtilis, ATCC6633): 3.12 µg/mL (≈ 9.42 µM)
MIC [10]: 3.12 µg/mL (≈ 9.42 µM)
MIC [11]: 3.12 µg/mL (≈ 9.42 µM)
MIC [12]: 3.12 µg/mL (≈ 9.42 µM)
MIC [13]: 3.12 µg/mL (≈ 9.42 µM)
Antibacterial activity, resistant S. aureus: Activity ([14]; 25 μg/mL): Active
MIC ([14]; Staphylococcus aureus): 3.12 µg/mL (≈ 9.42 µM)
MIC [15]: 3.12 µg/mL (≈ 9.42 µM)
Antibacterial activity, resistant P. aeruginosa: Activity ([16]; 25 μg/mL): Active
MIC ([16]; Pseudomonas aeruginosa): 3.12 µg/mL (≈ 9.42 µM)
Antibacterial activity, resistant E.coli: Activity ([17]; 25 μg/mL): Active
MIC ([17]; Escherichia coli): 3.12 µg/mL (≈ 9.42 µM)
Antibacterial activity, S. aureus: Activity [18]: Active
Antibacterial activity, Pseudomonas aeruginosa: Activity [19]: Active
Antibacterial activity, Klebsiella pneumoniae: Activity [20]: Active
Antibacterial activity, E. coli: Activity [21]: Active
Antibacterial activity, MRSA: Activity [22]: Active
